Laboratory results: US12006294B2, “Therapeutic compounds” (REGENTS OF THE UNIVERSITY OF MINNESOTA, priority 2017, dated 2024)
Structures can show the parent of a compound that is named as a salt. Where two headings read alike, the source gives them in different places.

System: Hela Cells
Test: Cellular ER stress model (tunicamycin, WST-8 cell viability)
Conditions: Homo sapiens, HeLa, 48 h
[1] = read-out: % Cell Survival Cmpd(2.5 μM) + Tuni, Hela cells, compound 2.5 μM + tunicamycin, WST-8 viability 48 hours after tunicamycin treatment
[2] = read-out: Compounds ERS (vs Tn), ERS activity vs Tuni = % cell survival (compound)/% cell survival (tunicamycin), compound 2.5 μM

SMILES: Cc1cc(=O)nc(N/N=C/c2c(F)cccc2Cl)[nH]1 [JM2-203-2, (E)-2-(2-(2-chloro-6-fluorobenzylidene)hydrazinyl)-6-methylpyrimidin-4(1H)-one]
- viability at 2.5 µM [1]: 19.7%
- viability at 2.5 µM [2]: 103%

SMILES: CCc1cccc(CC)c1/C=N/NC(=N)N [JM2-233-2]
- viability at 2.5 µM [1]: 31.8%
- viability at 2.5 µM [2]: 121%

SMILES: Clc1cccc(Cl)c1/C=N/NC1=NCCCN1 [JM2-255-2, (E)-2-(2-(2,6-dichlorobenzylidene)hydrazinyl)-1,4,5,6-tetrahydropyrimidine hydrochloride]
- viability at 2.5 µM [1]: 63.8%
- viability at 2.5 µM [2]: 201%

SMILES: Cc1cccc(Cl)c1/C=N/NC1=NCCCN1 [JM2-265-2, (E)-2-(2-(2-chloro-6-methylbenzylidene)hydrazinyl)-1,4,5,6-tetrahydropyrimidine hydrochloride]
- viability at 2.5 µM [1]: 47.2%
- viability at 2.5 µM [2]: 179%

SMILES: Clc1cccc(Cl)c1CC1=NCCCN1 [JM2-271-2, 2-(2,6-dichlorobenzyl)-1,4,5,6-tetrahydropyrimidine]
- viability at 2.5 µM [1]: 32.3%
- viability at 2.5 µM [2]: 123%

SMILES: N=C(N)NC(=O)Cc1c(Cl)cccc1[N+](=O)[O-] [JM2-275-2, N-carbamimidoyl-2-(2-chloro-6-nitrophenyl)acetamide hydrochloride]
- viability at 2.5 µM [1]: 29.8%
- viability at 2.5 µM [2]: 101%

SMILES: N=C(N)N/N=C/c1cccs1 [JM2-279-2, (E)-2-(thiophen-2-ylmethylene)hydrazine-1-carboximidamide]
- viability at 2.5 µM [1]: 32.1%
- viability at 2.5 µM [2]: 122%

SMILES: N=C(N)NC(=O)Cc1c(Cl)cccc1Cl [JM2-287-2, N-carbamimidoyl-2-(2,6-dichlorophenyl)acetamide hydrochloride]
- viability at 2.5 µM [1]: 33%
- viability at 2.5 µM [2]: 111%

SMILES: CN(C)C(=N)N/N=C/c1c(Cl)cccc1Cl [JM2-289-2, (E)-2-(2,6-dichlorobenzylidene)-N,N-dimethylhydrazine-1-carboximidamide hydroiodide]
- viability at 2.5 µM [1]: 33.8%
- viability at 2.5 µM [2]: 128%

SMILES: N=C(N)N/N=C/c1cc(Cl)ccc1Cl [JM3-11-2, (E)-2-(2,5-dichlorobenzylidene)hydrazine-1-carboximidamide acetate]
- viability at 2.5 µM [1]: 40.2%
- viability at 2.5 µM [2]: 153%

SMILES: N=C(N)N/N=C/c1ccccc1[N+](=O)[O-] [JM3-13-2, (E)-2-(2-nitrobenzylidene)hydrazine-1-carboximidamide acetate]
- viability at 2.5 µM [1]: 27.4%
- viability at 2.5 µM [2]: 104%

SMILES: N=C(N)N/N=C/c1ccccc1O [JM3-17-2, (E)-2-(2-hydroxybenzylidene)hydrazine-1-carboximidamide acetate]
- viability at 2.5 µM [1]: 28.7%
- viability at 2.5 µM [2]: 109%

SMILES: N=C(N)NCC(O)c1c(Cl)cccc1Cl (centres unmarked) [JM3-27-2, 1-(2-(2,6-dichlorophenyl)-2-hydroxyethyl)guanidine]
- viability at 2.5 µM [1]: 28.6%
- viability at 2.5 µM [2]: 109%

SMILES: N=C(N)N/N=C/c1c(Cl)ccnc1Cl [JM3-29-2, (E)-2-((2,4-dichloropyridin-3-yl)methylene)hydrazine-1-carboximidamide acetate]
- viability at 2.5 µM [1]: 32.2%
- viability at 2.5 µM [2]: 122%

SMILES: N=C(N)N/N=C/c1ccc(Br)cc1Cl [JM3-57-2, (E)-2-(4-bromo-2-chlorobenzylidene)hydrazine-1-carboximidamide acetate]
- viability at 2.5 µM [1]: 28.1%
- viability at 2.5 µM [2]: 107%

SMILES: N=C(N)N/N=C/c1ccc(-c2ccccc2)cc1Cl [JM3-63-2, (E)-2-((3-chloro-[1,1′-biphenyl]-4-yl)methylene)hydrazine-1-carboximidamide acetate]
- viability at 2.5 µM [1]: 15.9%
- viability at 2.5 µM [2]: 60%

SMILES: N=C(N)N/N=C/c1c(Cl)cc(-c2ccccc2)cc1Cl [JM3-67-2, (E)-2-((3,5-dichloro-[1,1′-biphenyl]-4-yl)methylene)hydrazine-1-carboximidamide]
- viability at 2.5 µM [1]: 23.3%
- viability at 2.5 µM [2]: 102%

SMILES: CCc1cccc(Cl)c1/C=N/NC(=N)N [JM3-81-2, (E)-2-(2-chloro-6-ethylbenzylidene)hydrazine-1-carboximidamide acetate]
- viability at 2.5 µM [1]: 29.9%
- viability at 2.5 µM [2]: 130%

SMILES: CC(C)c1cccc(Cl)c1/C=N/NC(=N)N [JM3-89-2, (E)-2-(2-chloro-6-isopropylbenzylidene)hydrazine-1-carboximidamide acetate]
- viability at 2.5 µM [1]: 22%
- viability at 2.5 µM [2]: 96%

SMILES: CC(C)c1cccc(C(C)C)c1/C=N/NC(=N)N [JM3-99-2, (E)-2-(2,6-diisopropylbenzylidene)hydrazine-1-carboximidamide]
- viability at 2.5 µM [1]: 20.9%
- viability at 2.5 µM [2]: 91%

SMILES: Clc1cccc(Cl)c1Cc1ncc[nH]1 [JM3-131-2, 2-(2,6-dichlorobenzyl)-1H-imidazole]
- viability at 2.5 µM [1]: 22.8%
- viability at 2.5 µM [2]: 100%

SMILES: N=C(N)N/N=C/c1c(C(F)(F)F)cccc1C(F)(F)F [JM3-141-2, (E)-2-(2,6-bis(trifluoromethyl)benzylidene)hydrazine-1-carboximidamide acetate]
- viability at 2.5 µM [1]: 19.6%
- viability at 2.5 µM [2]: 86%

SMILES: Clc1cccc(/C=N/NC2=NCCN2)c1Cl [JM3-149-2, (E)-2-(2-(2,3-dichlorobenzylidene)hydrazinyl)-4,5-dihydro-1H-imidazole hydrochloride]
- viability at 2.5 µM [1]: 29.1%
- viability at 2.5 µM [2]: 125%

SMILES: Clc1ccc(Cl)c(/C=N/NC2=NCCN2)c1Cl [JM3-151-2, (E)-2-(2-(2,3,6-trichlorobenzylidene)hydrazinyl)-4,5-dihydro-1H-imidazole hydrochloride]
- viability at 2.5 µM [1]: 24.2%
- viability at 2.5 µM [2]: 104%

SMILES: Clc1cccc(/C=N/NC2=NCCCN2)c1Cl [JM3-153-2, (E)-2-(2-(2,3-dichlorobenzylidene)hydrazinyl)-1,4,5,6-tetrahydropyrimidine hydrochloride]
- viability at 2.5 µM [1]: 36%
- viability at 2.5 µM [2]: 155%

SMILES: Clc1ccc(Cl)c(/C=N/NC2=NCCCN2)c1Cl [JM3-155-2, (E)-2-(2-(2,3,6-trichlorobenzylidene)hydrazinyl)-1,4,5,6-tetrahydropyrimidine hydrochloride]
- viability at 2.5 µM [1]: 31.2%
- viability at 2.5 µM [2]: 135%

SMILES: CCCCNC(=N)N/N=C/c1c(Cl)cccc1Cl [JM3-161-2, (E)-N-butyl-2-(2,6-dichlorobenzylidene)hydrazine-1-carboximidamide hydroiodide]
- viability at 2.5 µM [1]: 14.7%
- viability at 2.5 µM [2]: 63%

SMILES: Clc1cccc(CC2=NCCN2)c1Cl [JM3-179-2, 2-(2,3-dichlorobenzyl)-4,5-dihydro-1H-imidazole]
- viability at 2.5 µM [1]: 20.4%
- viability at 2.5 µM [2]: 88%

SMILES: Clc1cccc(CC2=NCCCN2)c1Cl [JM3-181-2, 2-(2,3-dichlorobenzyl)-1,4,5,6-tetrahydropyrimidine]
- viability at 2.5 µM [1]: 19.6%
- viability at 2.5 µM [2]: 102%

SMILES: N=C(N)N/N=C/c1ccccc1I [JM3-183-2, (E)-2-(2-iodobenzylidene)hydrazine-1-carboximidamide acetate]
- viability at 2.5 µM [1]: 24.2%
- viability at 2.5 µM [2]: 104%

SMILES: Cc1[nH]c(N/N=C/c2c(Cl)cccc2Cl)nc(=O)c1C [JM3-191-2, (E)-2-(2-(2,6-dichlorobenzylidene)hydrazinyl)-5,6-dimethylpyrimidin-4(1H)-one]
- viability at 2.5 µM [1]: 40.6%
- viability at 2.5 µM [2]: 175%

SMILES: Cc1[nH]c(N/N=C/c2cccc(Cl)c2Cl)nc(=O)c1C [JM3-195-2, (E)-2-(2-(2,3-dichlorobenzylidene)hydrazinyl)-5,6-dimethylpyrimidin-4(1H)-one]
- viability at 2.5 µM [1]: 29.7%
- viability at 2.5 µM [2]: 128%

SMILES: Cc1cc(=O)nc(N/N=C/c2c(Cl)cccc2Cl)[nH]1 [JM3-197-2, (E)-2-(2-(2,6-dichlorobenzylidene)hydrazinyl)-6-methylpyrimidin-4(1H)-one]
- viability at 2.5 µM [1]: 20.4%
- viability at 2.5 µM [2]: 106%

SMILES: Cc1cc(=O)nc(N/N=C/c2cccc(Cl)c2Cl)[nH]1 [JM3-199-2, (E)-2-(2-(2,3-dichlorobenzylidene)hydrazinyl)-6-methylpyrimidin-4(1H)-one]
- viability at 2.5 µM [1]: 22.9%
- viability at 2.5 µM [2]: 120%

SMILES: Cc1cc(=O)nc(N/N=C/c2c(Cl)ccc(Cl)c2Cl)[nH]1 [JM3-201-2, (E)-6-methyl-2-(2-(2,3,6-trichlorobenzylidene)hydrazinyl)pyrimidin-4(1H)-one]
- viability at 2.5 µM [1]: 20%
- viability at 2.5 µM [2]: 104%

SMILES: Cc1[nH]c(N/N=C/c2c(Cl)ccc(Cl)c2Cl)nc(=O)c1C [JM3-205-2, (E)-5,6-dimethyl-2-(2-(2,3,6-trichlorobenzylidene)hydrazinyl)pyrimidin-4(1H)-one]
- viability at 2.5 µM [1]: 20.7%
- viability at 2.5 µM [2]: 108%

SMILES: Cc1[nH]c(N/N=C/c2c(F)cccc2Cl)nc(=O)c1C [JM3-207-2, (E)-2-(2-(2-chloro-6-fluorobenzylidene)hydrazinyl)-5,6-dimethylpyrimidin-4(1H)-one]
- viability at 2.5 µM [1]: 23.1%
- viability at 2.5 µM [2]: 120%

SMILES: Cc1[nH]c(N/N=C/c2ccc(Cl)c(Cl)c2)nc(=O)c1C [JM3-209-2, (E)-2-(2-(3,4-dichlorobenzylidene)hydrazinyl)-5,6-dimethylpyrimidin-4(1H)-one]
- viability at 2.5 µM [1]: 21.6%
- viability at 2.5 µM [2]: 113%

SMILES: Cc1cc(=O)nc(N/N=C/c2ccc(Cl)c(Cl)c2)[nH]1 [JM3-211-2, (E)-2-(2-(3,4-dichlorobenzylidene)hydrazinyl)-6-methylpyrimidin-4(1H)-one]
- viability at 2.5 µM [1]: 20.2%
- viability at 2.5 µM [2]: 105%

SMILES: Cc1[nH]c(N/N=C/c2ccccc2Cl)nc(=O)c1C [JM3-213-2, (E)-2-(2-(2-chlorobenzylidene)hydrazinyl)-5,6-dimethylpyrimidin-4(1H)-one]
- viability at 2.5 µM [1]: 22.8%
- viability at 2.5 µM [2]: 119%

SMILES: Cc1cc(=O)nc(N/N=C/c2ccccc2Cl)[nH]1 [JM3-215-3, (E)-2-(2-(2-chlorobenzylidene)hydrazinyl)-6-methylpyrimidin-4(1H)-one]
- viability at 2.5 µM [1]: 21%
- viability at 2.5 µM [2]: 110%

SMILES: NC(=O)N/N=C/c1ccccc1Br [JM3-219-4, (E)-2-(2-bromobenzylidene)hydrazine-1-carboxamide hydrochloride]
- viability at 2.5 µM [1]: 20%
- viability at 2.5 µM [2]: 104%

SMILES: NC(=O)N/N=C/c1ccccc1F [JM3-221-2, (E)-2-(2-fluorobenzylidene)hydrazine-1-carboxamide hydrochloride]
- viability at 2.5 µM [1]: 28.9%
- viability at 2.5 µM [2]: 122%
